According to patent EP4417602A1, “SUBSTITUTED PYRAZOLE CARBOXAMIDES, SALTS THEREOF AND THEIR USE AS HERBICIDALLY ACTIVE SUBSTANCES” (Bayer AG, priority 2023, dated 2024):

Experiments:
ALOMY [1] = test: B. Herbicidal post-emergence action on harmful plants (Tables B); format: in vivo, Alopecurus myosuroides
Description: Seeds of mono- and dicotyledonous weed plants were placed in plastic pots in sandy loam soil (doubly sown with in each case one species of mono- or dicotyledonous weed plants per pot), covered with soil and cultivated in a greenhouse under controlled growth conditions. 2 to 3 weeks after sowing, the test plants were treated at the one-leaf stage. The compounds of the invention, formulated in the form of wettable powders (WP) or as emulsion concentrates (EC), were applied onto the green parts of the plants as aqueous suspension or emulsion with addition of 0.5% additive at a water application rate of 600 liters per hectare (converted). After the test plants had been kept in the greenhouse under optimum growth conditions for about 3 weeks, the activity of the preparations was rated visually in comparison to untreated controls. For example, 100% activity = the plants have died, 0% activity = like control plants. Tables B1 to B12, below, show the effects of selected compounds of the general formula (I) according to table 1 on various harmful plants and an application rate corresponding to 1280 g/ha or below obtained by the experimental procedure mentioned above. Table B1a: post-emergence activity at 1280g/ha against ABUTH in %

DIGSA [2] = test: C. Herbicidal pre-emergence action, weed and crop plants (Tables C); format: in vivo, Digitaria sanguinalis; settings: application rate 320 g/ha; Table C5a
Method in brief: (§1)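 Seeds were sown in sandy loam and covered with soil. WP or EC formulations were sprayed onto the soil surface as aqueous suspension or emulsion with 0.5% additive, at rates of 320 g/ha or below. Plants were kept in a greenhouse, and damage was scored visually after about 3 weeks as % effect versus untreated controls (100% = dead, 0% = like control).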

STEME = test: A. Herbicidal pre-emergence action on harmful plants (Tables A); format: in vivo, Stellaria media; settings: visual grading after ca. 3 weeks vs untreated controls, 100% = plants have died off, 0% = as control plants
Method in brief: (§2)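 Greenhouse pre-emergence test: compound applied to the soil surface at 1280 g/ha or below, and herbicidal effect rated visually at ca. 3 weeks on a 0–100% scale against untreated plants.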

LOLRI = test: as above; format: in vivo, Lolium rigidum; settings: visual grading after ca. 3 weeks vs untreated controls, 100% = plants have died off, 0% = as control plants
Method in brief: as §2

DIGSA [3] = test: B. Herbicidal post-emergence action on harmful plants (Tables B); format: in vivo, Digitaria sanguinalis
Method in brief: (§3)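 Activity was scored visually as % damage (100% = dead, 0% = like untreated) about 3 weeks after treatment. Plants at the one-leaf stage, 2-3 weeks old, were sprayed with WP/EC formulations plus 0.5% additive (600 L/ha water, up to 1280 g/ha). Plants were grown in sandy loam in a greenhouse.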

ALOMY [4] = test: C. Herbicidal pre-emergence action, weed and crop plants (Tables C); format: in vivo, Alopecurus myosuroides
Source text: Seeds of mono- and dicotyledonous weed plants and crop plants were sown, in plastic or organic planting pots, in sandy loam and covered with soil. The compounds according to the invention, formulated in the form of wettable powders (WP) or as emulsifiable concentrates (EC), were applied to the surface of the covering soil as aqueous suspension or emulsion, with the addition of 0.5% of an additive, at an application rate of 6001 of water/ha (converted). Following treatment, the pots were placed in a greenhouse and kept under optimum growth conditions for the test plants. The visual grading of the damage to the test plants was carried out after ca. 3 weeks in comparison to untreated controls (herbicidal effect in percent (%): 100% effect = plants have died off, 0% effect = as control plants). Tables C1 to C12 below show the effects of selected compounds of the general formula (I) according to table 1 on various harmful plants and an application rate corresponding to 320 g/ha or below obtained by the experimental procedure mentioned above. Table C1: pre-emergence activity at 320g/ha against KCHSC in %

DIGSA [5] = test: A. Herbicidal pre-emergence action on harmful plants (Tables A); format: in vivo, Digitaria sanguinalis
Method in brief: as §2

ALOMY [6] = test: as above; format: in vivo, Alopecurus myosuroides
Method in brief: as §2

POAAN = test: B. Herbicidal post-emergence action on harmful plants (Tables B); format: in vivo, Poa annua
Method in brief: as §3

BRSNW = test: D. Pre-emergence effects on crop plants (Tables D); format: in vivo, Brassica napus; settings: crop plant
Method in brief: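 Pre-emergence soil-surface treatment at 320 g/ha or lower, using wettable-powder or emulsifiable-concentrate formulations in water plus 0.5% additive, over freshly sown seeds in covered sandy loam. Damage was rated visually as percent versus untreated pots (100% = dead plants) after about 3 weeks of greenhouse growth.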

ECHCG [7] = test: A. Herbicidal pre-emergence action on harmful plants (Tables A); format: in vivo, Echinochloa crus-galli; settings: visual grading after ca. 3 weeks vs untreated controls, 100% = plants have died off, 0% = as control plants
Method in brief: as §2

SETVI = test: as above; format: in vivo, Setaria viridis; settings: visual grading after ca. 3 weeks vs untreated controls, 100% = plants have died off, 0% = as control plants
Method in brief: as §2

ECHCG [8] = test: C. Herbicidal pre-emergence action, weed and crop plants (Tables C); format: in vivo, Echinochloa crus-galli
Method in brief: as §1

VIOTR = test: as above; format: in vivo, Viola tricolor
Method in brief: as §1

[9] = application rate 320 g/ha, Table B9b
[10] = application rate 1280 g/ha, Table B9a
[11] = application rate 1280 g/ha, Table B12a
[12] = application rate 320 g/ha, Table C2a
[13] = application rate 320 g/ha, Table A12b
[14] = application rate 1280 g/ha, Table A12a
[15] = application rate 320 g/ha, Table A9b
[16] = application rate 1280 g/ha, Table A9a
[17] = application rate 1280 g/ha, Table B7a
[18] = application rate 320 g/ha, Table C6a
[19] = application rate 320 g/ha, Table C12a
[20] = application rate 80 g/ha, Table C6b
[21] = application rate 80 g/ha, Table C2b
[22] = application rate 320 g/ha, Table B7b

Cn1cc(C(=O)N2CCCC2Cc2ccccc2F)c(COc2ccccc2)n1 (racemic) [Example I-006]
90%: post-emergence activity against ALOMY (ALOMY [1]; [9]) | post-emergence activity against ALOMY (ALOMY [1]; [10]) | pre-emergence activity against STEME (STEME; application rate 320 g/ha) | pre-emergence activity against STEME (STEME; application rate 1280 g/ha) | pre-emergence activity against LOLRI (LOLRI; application rate 1280 g/ha) | post-emergence activity against DIGSA (DIGSA [3]; [11]) | pre-emergence activity against ALOMY (ALOMY [4]; [12]) | pre-emergence activity against DIGSA (DIGSA [5]; [13]) | pre-emergence activity against ALOMY (ALOMY [6]; [15]) | post-emergence activity against POAAN (POAAN; [17]) | pre-emergence activity against ECHCG (ECHCG [7]; application rate 1280 g/ha)
10%: pre-emergence activity against BRSNW in % (BRSNW; application rate 320 g/ha)
100%: pre-emergence activity against DIGSA (DIGSA [2]) | pre-emergence activity against DIGSA (DIGSA [5]; [14]) | pre-emergence activity against ALOMY (ALOMY [6]; [16])
0%: pre-emergence activity against BRSNW in % (BRSNW; application rate 80 g/ha)

Cn1cc(C(=O)N2CCCC2Cc2ccc(F)cc2F)c(COc2ccccc2)n1 (racemic) [Example I-008]
90%: pre-emergence activity against SETVI (SETVI; application rate 1280 g/ha) | post-emergence activity against ALOMY (ALOMY [1]; [10]) | pre-emergence activity against DIGSA (DIGSA [2]) | pre-emergence activity against STEME (STEME; application rate 1280 g/ha) | pre-emergence activity against ECHCG (ECHCG [8]; [18]) | pre-emergence activity against DIGSA (DIGSA [5]; [13]) | pre-emergence activity against VIOTR (VIOTR; [19]) | post-emergence activity against POAAN (POAAN; [17]) | pre-emergence activity against ECHCG (ECHCG [7]; application rate 1280 g/ha)
0%: pre-emergence activity against BRSNW in % (BRSNW; application rate 80 g/ha)
100%: pre-emergence activity against ALOMY (ALOMY [4]; [12]) | pre-emergence activity against DIGSA (DIGSA [5]; [14]) | pre-emergence activity against ALOMY (ALOMY [6]; [15]) | pre-emergence activity against ALOMY (ALOMY [6]; [16])
10%: pre-emergence activity against BRSNW in % (BRSNW; application rate 320 g/ha)

COCc1c(C(=O)N2CCCC2Cc2ccccc2Cl)cnn1C (racemic) [Example I-170]
90%: pre-emergence activity against SETVI (SETVI; application rate 320 g/ha) | pre-emergence activity against SETVI (SETVI; application rate 1280 g/ha) | post-emergence activity against ALOMY (ALOMY [1]; [10]) | pre-emergence activity against ECHCG (ECHCG [8]; [20]) | pre-emergence activity against ECHCG (ECHCG [8]; [18]) | pre-emergence activity against LOLRI (LOLRI; application rate 320 g/ha) | pre-emergence activity against LOLRI (LOLRI; application rate 1280 g/ha) | pre-emergence activity against ALOMY (ALOMY [4]; [21]) | pre-emergence activity against ALOMY (ALOMY [4]; [12]) | pre-emergence activity against ALOMY (ALOMY [6]; [16]) | post-emergence activity against POAAN (POAAN; [22]) | post-emergence activity against POAAN (POAAN; [17]) | pre-emergence activity against ECHCG (ECHCG [7]; application rate 80 g/ha) | pre-emergence activity against ECHCG (ECHCG [7]; application rate 320 g/ha) | pre-emergence activity against ECHCG (ECHCG [7]; application rate 1280 g/ha)
0%: pre-emergence activity against BRSNW in % (BRSNW; application rate 80 g/ha) | pre-emergence activity against BRSNW in % (BRSNW; application rate 320 g/ha)

COCc1nn(C)cc1C(=O)N1CCCC1Cc1ccccc1F (single isomer, unassigned) [Example I-003]
80%: pre-emergence activity against VIOTR (VIOTR; application rate 80 g/ha, Table C12b)
0%: pre-emergence activity against BRSNW in % (BRSNW; application rate 80 g/ha) | pre-emergence activity against BRSNW in % (BRSNW; application rate 320 g/ha)
100%: pre-emergence activity against SETVI (SETVI; application rate 80 g/ha) | pre-emergence activity against SETVI (SETVI; application rate 320 g/ha) | pre-emergence activity against SETVI (SETVI; application rate 1280 g/ha) | post-emergence activity against ALOMY (ALOMY [1]; application rate 80 g/ha, Table B9c) | post-emergence activity against ALOMY (ALOMY [1]; [9]) | post-emergence activity against ALOMY (ALOMY [1]; [10]) | pre-emergence activity against LOLRI (LOLRI; application rate 80 g/ha) | pre-emergence activity against LOLRI (LOLRI; application rate 320 g/ha) | pre-emergence activity against LOLRI (LOLRI; application rate 1280 g/ha) | post-emergence activity against DIGSA (DIGSA [3]; application rate 80 g/ha, Table B12c) | post-emergence activity against DIGSA (DIGSA [3]; application rate 320 g/ha, Table B12b) | post-emergence activity against DIGSA (DIGSA [3]; [11]) | pre-emergence activity against ALOMY (ALOMY [4]; [12]) | pre-emergence activity against DIGSA (DIGSA [5]; application rate 80 g/ha, Table A12c) | pre-emergence activity against DIGSA (DIGSA [5]; [13]) | pre-emergence activity against DIGSA (DIGSA [5]; [14]) | pre-emergence activity against ALOMY (ALOMY [6]; [15]) | pre-emergence activity against ALOMY (ALOMY [6]; [16]) | pre-emergence activity against ECHCG (ECHCG [7]; application rate 80 g/ha) | pre-emergence activity against ECHCG (ECHCG [7]; application rate 320 g/ha) | pre-emergence activity against ECHCG (ECHCG [7]; application rate 1280 g/ha)
90%: pre-emergence activity against STEME (STEME; application rate 80 g/ha) | pre-emergence activity against STEME (STEME; application rate 320 g/ha) | pre-emergence activity against STEME (STEME; application rate 1280 g/ha) | pre-emergence activity against ECHCG (ECHCG [8]; [20]) | pre-emergence activity against ECHCG (ECHCG [8]; [18]) | pre-emergence activity against ALOMY (ALOMY [4]; [21]) | pre-emergence activity against VIOTR (VIOTR; [19]) | post-emergence activity against POAAN (POAAN; application rate 80 g/ha, Table B7c) | post-emergence activity against POAAN (POAAN; [22]) | post-emergence activity against POAAN (POAAN; [17])
